Where a name gives a salt, the structure may show the parent alone.
How the values were obtained:
[1] = test system: type 2 diabetes rat model (high-fat and high-sugar feed + streptozotocin); assay: Combined drug use experiment (HH003B with Empagliflozin): HbA1c in rat model; format: in vivo, Wistar rats; details: model rats
Excerpt: Wistar rats were bred adaptively for 1 week. The subjects were randomly divided into the normal Control group (10) and the modeling group (60) according to their body weight from the second week. The normal Control group (Control) was fed with basic feed, and the model group was fed with high-fat and high-sugar feed. […] On the 9th weekend, rats fasted overnight, measured FBG and insulin levels, and calculated the insulin index (ISI). The model would be successfully established if the fasting blood glucose (>) was 11.1 mmol/L and the ISI was decreased. The successfully modeled rats were randomly divided into Model group, Metformin hydrochloride group, HH003 group, and HH003B group, with 10 rats in each group. […] Fasting but gave water after the last dose, and then weighted the rats after 12 hours. Detected the content of fasting insulin (Insulin), separated the serum, detected the high-density lipoprotein (HDL), free fatty acid (FFA) and glycosylated hemoglobin (GHB). […] Empagliflozin group was given by gavage 1 mg/kg once a day. […] HbA1c was determined at the end of the experiment.

[2] = test system: type 2 diabetes rat model (high-fat and high-sugar feed + streptozotocin); assay: Pharmacodynamic experiment: biochemical indexes of rat model after 4 weeks of administration; format: in vivo, Wistar rats; details: model rats
Excerpt: Wistar rats were bred adaptively for 1 week. The subjects were randomly divided into the normal Control group (10) and the modeling group (60) according to their body weight from the second week. The normal Control group (Control) was fed with basic feed, and the model group was fed with high-fat and high-sugar feed. […] On the 9th weekend, rats fasted overnight, measured FBG and insulin levels, and calculated the insulin index (ISI). The model would be successfully established if the fasting blood glucose (>) was 11.1 mmol/L and the ISI was decreased. The successfully modeled rats were randomly divided into Model group, Metformin hydrochloride group, HH003 group, and HH003B group, with 10 rats in each group. […] Fasting but gave water after the last dose, and then weighted the rats after 12 hours. Detected the content of fasting insulin (Insulin), separated the serum, detected the high-density lipoprotein (HDL), free fatty acid (FFA) and glycosylated hemoglobin (GHB).

[3] = 4 weeks, metformin hydrochloride 200 mg/kg daily gavage, HH003/HH003B 30% of feed (about 13 g/d/kg)

Structure (SMILES)	HbA1c (glycosylated hemoglobin) ([1]; 4 weeks, Empagliflozin 1 mg/kg gavage once a day, HH003B 15% of feed (about 7 g/d/kg), combination both) [mg/dL]	effect on glycosylated hemoglobin, in words ([1]; Empagliflozin 1 mg/kg, HH003B reduced dose (15% of feed))	effect on HDL level, in words ([2]; 4 weeks of administration)	effect on glycosylated hemoglobin GHB level, in words ([2]; 4 weeks of administration, versus Model and Control groups)	effect on the disease condition of type 2 diabetes, in words ([2]; 4 weeks, HH003/HH003B 30% of feed, metformin hydrochloride 200 mg/kg)	FFA (free fatty acid), serum [2, 3] [mmol/L]	GHB (glycosylated hemoglobin) [2, 3] [mmol/L]	HDL (high-density lipoprotein), serum [2, 3] [mmol/L]	Insulin (fasting insulin) ([2]; 4 weeks, metformin hydrochloride 200 mg/kg daily gavage, HH003/HH003B 30% of feed (about 13 g/d/kg), 12 h fasting, mean ± spread) [uIU/ml]
OC[C@H]1O[C@@H](c2ccc(Cl)c(Cc3ccc(O[C@H]4CCOC4)cc3)c2)[C@H](O)[C@@H](O)[C@@H]1O [Empagliflozin]	7.01 ± 0.17	no effect							
CN(C)C(=N)N=C(N)N [Metformin, metformin hydrochloride]			significantly increase HDL level	significantly reduce the GHB level of the rats but still significantly higher than that of the normal rats	only improve the disease condition of type 2 diabetes to a certain extent	0.56 ± 0.03	15.07 ± 0.85	0.74 ± 0.15	31.15 ± 6.28

From patent US20200276258A1, “PHARMACEUTICAL COMPOSITION FOR CONTROLLING BLOOD SUGAR” (BEIJING HEBABIZ BIOTECHNOLOGY CO., Inc., priority 2017, published 2020)
